One may read the IC50 as the midpoint of a concentration-inhibition curve. Broadly, the Ki is the dissociation constant of the complex between target and ligand, obtained from inhibition or displacement. The melting point is the temperature of the solid-liquid transition.

The target of data set [1] is human A2A receptor (Homo sapiens, UniProt P29274). The experiment in a line: A2A-antagonist Ca++ functional assay (CGS21680 at EC80). As to conditions: HEK cells expressing GFP-hA2A and Gα15, inhibition of CGS21680 (EC80)-induced Ca2+ increase. The data set is classed as cell-based. The text has this:
Assay protocol: HEK cells stably expressing the human A2A receptor fused at its amino terminal domain to GFP, and cultured in Modified Eagle's Medium supplemented with 10% FCS, were transiently transfected by electroporation with plasmid DNA encoding the promiscuous G protein Gα15 in order to deviate the natural coupling of the receptor from AMPc production to calcium (Ca^2+) release pathway (Brabet et al., Neuropharmacology 37:1043-1051, 1998). Receptor activity was detected by changes in intracellular Ca^2+, measured using the fluorescent Ca^2+ sensitive dye, Fluo4AM (Molecular Probes®).
Cells were plated after transfection onto polyornithine coated, clear bottom, black-walled, 96-well plates and cultured for 24 hours. The day of the test, cells were washed with freshly prepared buffer B (HBSS 1×, Hepes 20 mM, MgSO4.7H2O 1 mM, Na2CO3 3.3 mM, CaCl2-2H2O 1.3 mM, 0.5% BSA, Probenecid 2.5 mM) and loaded at 37° C. in 5% CO2 for 1.5 hours with buffer B containing 1 μM Fluo4AM and 0.1 mg/mL Pluronic Acid. Afterwards cells were washed twice with buffer B and 50 μL of this buffer were added to each well. The tested compounds were incubated […] before addition of CGS21680 (used as reference agonist) at a concentration leading to 80% of its maximal activity (EC80). Afterwards, the intracellular Ca^2+ measurements were performed on a 60s kinetic by detection of the fluorescence intensity (excitation 485 nm, emission 525 nm) using the fluorescence microplate reader FlexStation® (Molecular Devices®). All data reflect three independent experiments. Dose-response curves were fitted by using the sigmoidal dose-response (variable slope) analyze in GraphPad Prism® program (San Diego) and IC50 of antagonist compound was calculated. Dose-response experiments were all performed in triplicate, three times independently.

The target of data set [2] is hA2A receptor (Homo sapiens (Human), UniProt P29274). The experiment in a line: A2A FRET-based binding assay. As to conditions: HEK GFP-A2A stable cell line, dyed CGS15943-derived probe. Here is the method: Assay protocol: Compounds were evaluated on an in-vitro binding assay developed based on the technology described in the patent WO 98/55873. This assay was developed from hA2A receptor that was fused at its amino terminal domain to Green Fluorescent Protein (GFP) and stably expressed in HEK cells. The probe used is a dyed ligand derived from the non-selective CGS15943. For the FRET-binding experiment, HEK GFP-A2A stable cell line was seeded onto poly-D-lysine precoated black-walled 96-well plates in normal growth media (0.7 10^5 cells per well). After 24 hours of culture at 37° C., the cell media was removed and cells were washed. The tested compounds were applied on cells by the FLIPR^TETRA® (Molecular Devices®) and incubated for 10 minutes prior to addition of the dyed probe. When a drug interacts with the receptor, the FRET signal measured by the variation of GFP fluorescence at 510 nm is disrupted. The time curves of ligand binding were recorded during 1000 seconds. (excitation Light Emitting Diode 470-495 nm, emission 510+/−10 nm). The percentage of inhibition allows the evaluation of the inhibitory activity of compounds in comparison to the antagonist A2A reference CGS15943. The dose-inhibition curves were fitted with variable slope, using GraphPad® Prism software, in order to determine […] and Ki values. The dose-inhibition experiments were all performed in duplicate, three times independently.

In data set [3] the test system is haloperidol-induced catalepsy. The experiment in a line: Haloperidol-induced catalepsy model in the mouse (bar test). Format: in vivo.

Counter-ions that a name gives are not always drawn.

Chain of hA2A receptor (P29274 whole entry, the tested form may be a part): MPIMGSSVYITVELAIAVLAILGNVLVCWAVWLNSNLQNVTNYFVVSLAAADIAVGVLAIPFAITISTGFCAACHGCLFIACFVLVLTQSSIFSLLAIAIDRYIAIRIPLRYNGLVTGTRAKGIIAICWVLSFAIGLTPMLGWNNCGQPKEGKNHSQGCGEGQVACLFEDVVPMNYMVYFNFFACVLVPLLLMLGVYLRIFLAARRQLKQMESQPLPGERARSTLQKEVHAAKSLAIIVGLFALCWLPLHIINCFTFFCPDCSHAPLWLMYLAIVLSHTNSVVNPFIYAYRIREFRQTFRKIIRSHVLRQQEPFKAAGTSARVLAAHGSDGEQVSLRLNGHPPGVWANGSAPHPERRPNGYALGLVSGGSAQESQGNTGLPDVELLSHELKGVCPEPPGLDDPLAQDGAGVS

The compound `O=C(c1ccc(C(=O)N(C2CCCCC2)C2CCCCC2)cc1)c1cnc2ccccn12` [Example 48, N,N-Dicyclohexyl-4-(imidazo[1,2-a]pyridine-3-carbonyl)-benzamide] showed an IC50 in data set [1] of 945 ± 419 nM. The Ki in data set [2] came to 138 ± 115 nM.

`O=C(c1ccc2c(c1)nnn2-c1cnc2ccc(F)cn12)N1CCCCCC1` [Example 132, 5-(Azepan-1-ylcarbonyl)-1-(6-fluoroimidazo[1,2-a]pyridin-3-yl)-1H-1,2,3-benzotriazole]: the melting point lay in the range of 160 to 166 °C. The IC50 in data set [1] worked out at 326 ± 47 nM. The same compound gave a Ki in data set [2] of 72 ± 10 nM.

As for `Cn1nc(-c2cnc3ccc(F)cn23)c2ccc(C(=O)N3CCCCCCC3)cc21` [Example 97, Azocan-1-yl-[3-(6-fluoro-imidazo[1,2-a]pyridin-3-yl)-1-methyl-1H-indazol-6-yl]-methanone, chlorhydrate salt], inhibition in data set [1] was half-maximal at 21 ± 8 nM (IC50). The compound also came in with a Ki in data set [2] of 3 ± 0.4 nM.

On to `O=C(c1ccc(C(=O)N2CCCCCC2)cc1)c1cnc2ccc(F)cn12` [Example 14, [4-(Azepane-1-carbonyl)-phenyl]-(6-fluoro-imidazo[1,2-a]pyridin-3-yl)-methanone], for which the melting point is 165 to 169 °C. Also, half-maximal inhibition in data set [1] (IC50) was put at 195 ± 100 nM. Also, the anti-cataleptic effect entry in data set [3] (1 mg/kg i.p. 120 minutes after haloperidol, FIG. 1) is “no anticataleptic activity”. For the same compound, the anti-cataleptic effect entry in data set [3] (30 mg/kg i.p. 120 minutes after haloperidol, FIG. 1) is given as “the most important catalepsy reversion”. Also, in data set [3] (1, 3, 30 and 100 mg/kg i.p. 120 minutes after haloperidol (1 mg/kg i.p.), FIG. 1), the anti-cataleptic effect entry is “significant anti-cataleptic effect in a dose-dependent manner”. Besides, the anti-cataleptic effect result in data set [3] (10 and 30 mg/kg per os 120 minutes after haloperidol, FIG. 2) is reported as “significant anti-cataleptic effect in a dose-dependent manner”. Besides, the Ki in data set [2] worked out at 12 ± 6 nM.

For the compound `CCN(C(=O)c1ccc(C(=O)c2cnc3ccc(Br)cn23)cc1)C1CCCCC1` [Example 10, 4-(6-Bromo-imidazo[1,2-a]pyridine-3-carbonyl)-N-cyclohexyl-N-ethyl-benzamide], inhibition in data set [1] was half-maximal at 891 ± 571 nM (IC50). The affinity in data set [2] corresponds to a Ki of 108 ± 74 nM.

With `Nc1cc(C(=O)N2CCCCCC2)ccc1C(=O)c1cnc2ccc(F)cn12` [Example 30, [2-Amino-4-(azepane-1-carbonyl)-phenyl]-(6-fluoro-imidazo[1,2-a]pyridin-3-yl)-methanone], the melting point was in the range of 141 to 152 °C. This compound also came in with an IC50 in data set [1] of 992 ± 11 nM. The compound also had a Ki in data set [2] of 103 ± 52 nM.

As for `CCN(C(=O)c1ccc(C(=O)c2cnc3ccccn23)nc1)C1CCCCC1` [Example 23, N-Cyclohexyl-N-ethyl-6-(imidazo[1,2-a]pyridine-3-carbonyl)-nicotinamide], half-maximal inhibition in data set [1] (IC50) required 403 ± 163 nM. Also, in data set [2], the affinity, expressed as Ki, was 264 ± 141 nM.

`Cn1nc(-c2cnc3ccc(F)cn23)c2ccc(C(=O)N3CCCCCC3)cc21` [Example 79, Azepan-1-yl-[3-(6-fluoro-imidazo[1,2-a]pyridin-3-yl)-1-methyl-1H-indazol-6-yl]-methanone] showed an IC50 in data set [1] of 15 ± 4 nM. The compound also had a Ki in data set [2] of 4 ± 1 nM.

Consider `COC[C@H]1CCCN1C(=O)c1ccc2c(-c3cnc4ccc(C#N)cn34)nn(C)c2c1` [Example 101, 3-(1-Methyl-6-{[(2R)-2-(methoxymethyl)pyrrolidin-1-yl]carbonyl}-1H-indazol-3-yl)imidazo[1,2-a]pyridine-6-carbonitrile, chlorhydrate salt], for which the IC50 in data set [1] was 12 ± 4 nM. Also, in data set [2], the affinity, expressed as Ki, was 3 nM.

`O=C(c1ccc(C(=O)N2CCCc3ccccc32)cc1)c1cnc2ccccn12` [Example 71, [4-(3,4-Dihydro-2H-quinoline-1-carbonyl)-phenyl]-imidazo[1,2-a]pyridin-3-yl-methanone] had a melting point of 169 to 175 °C. The IC50 in data set [1] amounted to 1830 ± 122 nM. In data set [2], the Ki was 171 ± 70 nM.

As for `O=C(c1ccc2c(-c3cnc4ccc(F)cn34)noc2c1)N1CCCCCC1` [Example 113, Azepan-1-yl-[3-(6-fluoro-imidazo[1,2-a]pyridin-3-yl)-benzo[d]isoxazol-6-yl]-methanone], the melting point is 218 to 219 °C. In data set [1], this compound had an IC50 of 46 ± 3 nM. This compound also showed a Ki in data set [2] of 4 ± 1 nM.

Values taken from patent US9029393B2, “Adenosine receptor ligands and uses thereof” (Kaldi Pharma, SAS, priority 2009, dated 2015).
